Test results published in PubChem BioAssay (NCI).
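Assay format: 96-well plates, 48-hour exposure. GI50 marks 50% less growth. The concentration for full growth arrest is given as TGI.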

What was measured:
Test in all cases: growth of human tumour cells (NCI), 48 h
EKVX NSCLC = system: EKVX NSCLC
HOP-92 NSCLC = system: HOP-92 NSCLC
LOX IMVI melanoma = system: LOX IMVI melanoma
M14 melanoma = system: M14 melanoma
SF-268 CNS = system: SF-268 CNS
SK-MEL-2 melanoma = system: SK-MEL-2 melanoma
SK-OV-3 ovarian = system: SK-OV-3 ovarian
SNB-19 CNS = system: SNB-19 CNS
SNB-75 CNS = system: SNB-75 CNS
UACC-257 melanoma = system: UACC-257 melanoma

In the case of C[C@H](Nc1ccc(C#N)n(C)c1=O)c1cc2cc(Cl)ccc2[nH]c1=O, the GI50 (EKVX NSCLC) is reported as 21.1 µM, the TGI (EKVX NSCLC) is reported as greater than 100 µM and the GI50 (HOP-92 NSCLC) is reported as 2.8 µM. It also gave a TGI (HOP-92 NSCLC) of 37.3 µM, a GI50 (LOX IMVI melanoma) of 33.1 µM and a TGI (LOX IMVI melanoma) greater than 100 µM. For the same compound, the GI50 (M14 melanoma) was 23.7 µM, the TGI (M14 melanoma) was greater than 100 µM and the GI50 (SF-268 CNS) was 22.7 µM. It also gave a TGI (SF-268 CNS) greater than 100 µM, a GI50 (SK-MEL-2 melanoma) of 26.7 µM and a TGI (SK-MEL-2 melanoma) of 94 µM. It also gave a GI50 (SK-OV-3 ovarian) of 23.9 µM, a TGI (SK-OV-3 ovarian) of 75.1 µM and a GI50 (SNB-19 CNS) of 32.5 µM. It also gave a TGI (SNB-19 CNS) greater than 100 µM, a GI50 (SNB-75 CNS) of 4.67 µM and a TGI (SNB-75 CNS) of 55.4 µM. For the same compound, the GI50 (UACC-257 melanoma) was 32.6 µM and the TGI (UACC-257 melanoma) was greater than 100 µM.

For NC(CCc1ccccc1)(C(=O)O)c1ccccc1 (stereo not drawn), the TGI (EKVX NSCLC) was greater than 100 µM, the TGI (HOP-92 NSCLC) was greater than 100 µM and the TGI (LOX IMVI melanoma) was greater than 100 µM. It also gave a TGI (M14 melanoma) greater than 100 µM, a TGI (SF-268 CNS) greater than 100 µM and a TGI (SK-MEL-2 melanoma) greater than 100 µM. For the same compound, the TGI (SNB-19 CNS) was greater than 100 µM, the TGI (SNB-75 CNS) was greater than 100 µM and the TGI (UACC-257 melanoma) was greater than 100 µM.

Compound Cc1cc(N2CCOCC2)nc(N(CCCNc2ccnc3cc(Cl)ccc23)Cc2ccc3c(c2)OCO3)n1 has a GI50 (EKVX NSCLC) of 2.29 µM, a TGI (EKVX NSCLC) of 5.55 µM and a GI50 (HOP-92 NSCLC) of 1.56 µM. It also gave a TGI (HOP-92 NSCLC) of 3.98 µM, a GI50 (M14 melanoma) of 1.4 µM and a TGI (M14 melanoma) of 2.73 µM. It also gave a GI50 (SK-MEL-2 melanoma) of 1.26 µM, a TGI (SK-MEL-2 melanoma) of 2.66 µM and a GI50 (SK-OV-3 ovarian) of 2.29 µM. The TGI (SK-OV-3 ovarian) was 4.54 µM, the GI50 (SNB-19 CNS) was 4.18 µM and the TGI (SNB-19 CNS) was 35.7 µM. For the same compound, the GI50 (SNB-75 CNS) was 1.5 µM, the TGI (SNB-75 CNS) was 2.93 µM and the GI50 (UACC-257 melanoma) was 1.99 µM. It also gave a TGI (UACC-257 melanoma) of 3.48 µM.

Work on Cn1c2c(c3c(=O)[nH]ncc31)CCc1ccccc1-2 yielded a TGI (EKVX NSCLC) greater than 100 µM, a TGI (HOP-92 NSCLC) greater than 100 µM and a TGI (LOX IMVI melanoma) of 35 µM. For the same compound, the TGI (M14 melanoma) was 41.7 µM, the TGI (SF-268 CNS) was greater than 100 µM and the TGI (SK-MEL-2 melanoma) was 57.1 µM. It also gave a TGI (SK-OV-3 ovarian) greater than 100 µM, a TGI (SNB-19 CNS) greater than 100 µM and a TGI (SNB-75 CNS) of 87.8 µM. For the same compound, the TGI (UACC-257 melanoma) was 40.6 µM.

Compound CN(C)C/C=C(/c1ccc(Br)cc1)c1cccnc1 has a TGI (EKVX NSCLC) greater than 100 µM, a TGI (HOP-92 NSCLC) greater than 100 µM and a TGI (M14 melanoma) of 37.2 µM. It also gave a TGI (SF-268 CNS) greater than 100 µM, a TGI (SK-MEL-2 melanoma) of 37.6 µM and a TGI (SK-OV-3 ovarian) greater than 100 µM. The TGI (SNB-19 CNS) was greater than 100 µM, the TGI (SNB-75 CNS) was greater than 100 µM and the TGI (UACC-257 melanoma) was 35.3 µM.

Work on CC(C)c1ccc2c(c1)[C@@]1(C)CC[C@H](C)C(C)(C)C1CC2 (stereo partly drawn) yielded a TGI (EKVX NSCLC) of 35.2 µM, a TGI (HOP-92 NSCLC) of 36.3 µM and a TGI (LOX IMVI melanoma) of 32 µM. For the same compound, the TGI (M14 melanoma) was 34.8 µM, the TGI (SF-268 CNS) was 36 µM and the TGI (SK-MEL-2 melanoma) was 63.3 µM. The TGI (SK-OV-3 ovarian) was 33.9 µM, the TGI (SNB-19 CNS) was 35.3 µM and the TGI (SNB-75 CNS) was 31.6 µM. For the same compound, the TGI (UACC-257 melanoma) was 36.7 µM.

In the case of NCCCCN, the TGI (EKVX NSCLC) is reported as greater than 100 µM, the TGI (HOP-92 NSCLC) is reported as greater than 100 µM and the TGI (LOX IMVI melanoma) is reported as greater than 100 µM. It also gave a TGI (M14 melanoma) greater than 100 µM, a TGI (SF-268 CNS) greater than 100 µM and a TGI (SK-MEL-2 melanoma) greater than 100 µM. The TGI (SK-OV-3 ovarian) was greater than 100 µM, the TGI (SNB-19 CNS) was greater than 100 µM and the TGI (SNB-75 CNS) was greater than 100 µM. It also gave a TGI (UACC-257 melanoma) greater than 100 µM.

For CCCCCCOC(=O)C(N)Cc1ccc(OC)cc1 (stereo not drawn), the TGI (EKVX NSCLC) was greater than 100 µM, the TGI (HOP-92 NSCLC) was greater than 100 µM and the TGI (LOX IMVI melanoma) was greater than 100 µM. For the same compound, the TGI (M14 melanoma) was greater than 100 µM, the TGI (SF-268 CNS) was greater than 100 µM and the TGI (SK-MEL-2 melanoma) was greater than 100 µM. For the same compound, the TGI (SK-OV-3 ovarian) was greater than 100 µM, the TGI (SNB-19 CNS) was greater than 100 µM and the TGI (SNB-75 CNS) was greater than 100 µM. The TGI (UACC-257 melanoma) was greater than 100 µM.

Compound COc1cccc(/C=N/[N-]C(N)=O)c1[O-].[Cu+2].[OH3+].c1cnc2c(c1)ccc1cccnc12 has a TGI (EKVX NSCLC) of 34.4 µM, a TGI (HOP-92 NSCLC) of 18.2 µM and a TGI (LOX IMVI melanoma) of 48.2 µM. It also gave a TGI (M14 melanoma) of 28.8 µM, a TGI (SF-268 CNS) of 60.7 µM and a TGI (SK-MEL-2 melanoma) of 32.1 µM. The TGI (SK-OV-3 ovarian) was 25.2 µM, the TGI (SNB-19 CNS) was 34.2 µM and the TGI (SNB-75 CNS) was 24.4 µM. For the same compound, the TGI (UACC-257 melanoma) was 34.5 µM.

For CC(Br)C(=O)c1ccc2cc(Br)c3ccccc3c2c1 (stereo not drawn), the TGI (EKVX NSCLC) was 28.9 µM, the TGI (HOP-92 NSCLC) was 30.8 µM and the TGI (LOX IMVI melanoma) was 20.4 µM. For the same compound, the TGI (M14 melanoma) was 31 µM, the TGI (SF-268 CNS) was 32.4 µM and the TGI (SK-MEL-2 melanoma) was 26.5 µM. For the same compound, the TGI (SK-OV-3 ovarian) was 30.8 µM, the TGI (SNB-19 CNS) was 32.7 µM and the TGI (SNB-75 CNS) was 29 µM. The TGI (UACC-257 melanoma) was 31.5 µM.

Compound CC(C)(C)c1ccc(O)c(Br)c1 has a TGI (EKVX NSCLC) greater than 100 µM, a TGI (LOX IMVI melanoma) greater than 100 µM and a TGI (M14 melanoma) greater than 100 µM. It also gave a TGI (SF-268 CNS) greater than 100 µM, a TGI (SK-MEL-2 melanoma) greater than 100 µM and a TGI (SK-OV-3 ovarian) greater than 100 µM. The TGI (SNB-19 CNS) was greater than 100 µM, the TGI (SNB-75 CNS) was greater than 100 µM and the TGI (UACC-257 melanoma) was greater than 100 µM.
